{"source": "patent US12686673B2", "about": "(Blueprint Medicines Corporation, priority 2020, dated 2026)", "format_in_all_cases": "cell-based", "key": {"[1]": {"target": "HER2 (A775_G776insYVMA) expressing Ba/F3 stable cell line (Homo sapiens, UniProt P04626, DUP772-775, cells depend on it)", "sequence (P04626 with tags, fused parts or gaps DUP772-775)": "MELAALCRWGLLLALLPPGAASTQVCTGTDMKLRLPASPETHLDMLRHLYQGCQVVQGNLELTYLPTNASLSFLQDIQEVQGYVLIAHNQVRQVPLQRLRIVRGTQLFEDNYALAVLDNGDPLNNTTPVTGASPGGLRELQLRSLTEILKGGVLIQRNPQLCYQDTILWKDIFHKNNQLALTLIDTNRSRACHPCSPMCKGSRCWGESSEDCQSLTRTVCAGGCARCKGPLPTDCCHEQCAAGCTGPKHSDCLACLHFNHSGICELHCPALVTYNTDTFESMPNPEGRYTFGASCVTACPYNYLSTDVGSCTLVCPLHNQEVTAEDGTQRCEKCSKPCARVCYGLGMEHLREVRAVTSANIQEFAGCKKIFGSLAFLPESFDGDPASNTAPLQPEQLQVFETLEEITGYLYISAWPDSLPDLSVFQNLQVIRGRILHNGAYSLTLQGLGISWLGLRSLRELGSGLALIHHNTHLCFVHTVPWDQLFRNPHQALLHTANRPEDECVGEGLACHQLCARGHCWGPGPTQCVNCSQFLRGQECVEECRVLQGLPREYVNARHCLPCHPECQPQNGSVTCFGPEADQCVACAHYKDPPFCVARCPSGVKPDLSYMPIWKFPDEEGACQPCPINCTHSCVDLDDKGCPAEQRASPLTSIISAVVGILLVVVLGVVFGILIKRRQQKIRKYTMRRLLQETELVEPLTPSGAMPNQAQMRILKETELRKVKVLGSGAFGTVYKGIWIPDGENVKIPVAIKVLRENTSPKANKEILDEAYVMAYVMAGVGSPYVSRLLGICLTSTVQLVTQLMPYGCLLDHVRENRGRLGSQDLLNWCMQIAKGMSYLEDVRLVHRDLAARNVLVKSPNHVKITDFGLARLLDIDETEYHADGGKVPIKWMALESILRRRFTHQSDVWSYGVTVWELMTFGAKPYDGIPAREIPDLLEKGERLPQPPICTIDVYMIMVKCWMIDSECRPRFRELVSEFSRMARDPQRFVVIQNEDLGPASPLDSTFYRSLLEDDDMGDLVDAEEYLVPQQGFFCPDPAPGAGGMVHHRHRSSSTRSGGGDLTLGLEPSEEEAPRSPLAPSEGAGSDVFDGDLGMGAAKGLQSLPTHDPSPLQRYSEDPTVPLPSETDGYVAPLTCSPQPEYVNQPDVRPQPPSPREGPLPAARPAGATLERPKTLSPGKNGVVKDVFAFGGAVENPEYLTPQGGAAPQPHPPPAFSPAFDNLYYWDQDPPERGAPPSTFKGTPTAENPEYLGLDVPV", "assay": "Cellular proliferation (Alamar Blue) assay, HER2 A775_G776insYVMA Ba/F3", "conditions": "72 hr, read-out: YVMA IC50", "experimental": "• 1. EGFR(D770_N771insSVD) expressing Ba/F3 stable cell line • 2. EGFR (A767_dupASV) expressing Ba/F3 stable cell line • 3. A431 cells • 4. EGFR (H773insNPH) expressing Ba/F3 stable cell line • 5. HER2 (A775_G776insYVMA) expressing Ba/F3 stable cell line Assay Procedure: • 1. Seed cells at 5000 for A431 and 15,000 cells for Ba/F3 in 100 μL/well in complete media (for A431: DMEM with […] and for Ba/F3 cells: RPMI with 10% FBS) in 96-well tissue culture plate. Leave outer wells without cells for background measurements. Incubate at 37 degree Celsius in […] humidified incubator for 16-18 hours. • 2. Add 0.025 ml of 5× concentration compound dilution or DMSO control. Final compound concentration range is 10-0.0005 μM prepared in 3-fold serial dilutions. Incubate for 72 hr at 37 degree Celsius in […] humidified incubator. • 3. Add 0.0125 ml Alamar Blue™ reagent to each well with multi-channel pipette and tap gently on each side of the plate to mix. Incubate for 3 hours at 37 degree Celsius in 5% CO2 humidified incubator. • 4. […] Data analysis was performed using XLfit 5.5.0.5."}, "[2]": {"target": "EGFR (A767_dupASV) expressing Ba/F3 stable cell line (Homo sapiens, UniProt P00533, DUP767-769, cells depend on it)", "sequence (P00533 with tags, fused parts or gaps DUP767-769)": "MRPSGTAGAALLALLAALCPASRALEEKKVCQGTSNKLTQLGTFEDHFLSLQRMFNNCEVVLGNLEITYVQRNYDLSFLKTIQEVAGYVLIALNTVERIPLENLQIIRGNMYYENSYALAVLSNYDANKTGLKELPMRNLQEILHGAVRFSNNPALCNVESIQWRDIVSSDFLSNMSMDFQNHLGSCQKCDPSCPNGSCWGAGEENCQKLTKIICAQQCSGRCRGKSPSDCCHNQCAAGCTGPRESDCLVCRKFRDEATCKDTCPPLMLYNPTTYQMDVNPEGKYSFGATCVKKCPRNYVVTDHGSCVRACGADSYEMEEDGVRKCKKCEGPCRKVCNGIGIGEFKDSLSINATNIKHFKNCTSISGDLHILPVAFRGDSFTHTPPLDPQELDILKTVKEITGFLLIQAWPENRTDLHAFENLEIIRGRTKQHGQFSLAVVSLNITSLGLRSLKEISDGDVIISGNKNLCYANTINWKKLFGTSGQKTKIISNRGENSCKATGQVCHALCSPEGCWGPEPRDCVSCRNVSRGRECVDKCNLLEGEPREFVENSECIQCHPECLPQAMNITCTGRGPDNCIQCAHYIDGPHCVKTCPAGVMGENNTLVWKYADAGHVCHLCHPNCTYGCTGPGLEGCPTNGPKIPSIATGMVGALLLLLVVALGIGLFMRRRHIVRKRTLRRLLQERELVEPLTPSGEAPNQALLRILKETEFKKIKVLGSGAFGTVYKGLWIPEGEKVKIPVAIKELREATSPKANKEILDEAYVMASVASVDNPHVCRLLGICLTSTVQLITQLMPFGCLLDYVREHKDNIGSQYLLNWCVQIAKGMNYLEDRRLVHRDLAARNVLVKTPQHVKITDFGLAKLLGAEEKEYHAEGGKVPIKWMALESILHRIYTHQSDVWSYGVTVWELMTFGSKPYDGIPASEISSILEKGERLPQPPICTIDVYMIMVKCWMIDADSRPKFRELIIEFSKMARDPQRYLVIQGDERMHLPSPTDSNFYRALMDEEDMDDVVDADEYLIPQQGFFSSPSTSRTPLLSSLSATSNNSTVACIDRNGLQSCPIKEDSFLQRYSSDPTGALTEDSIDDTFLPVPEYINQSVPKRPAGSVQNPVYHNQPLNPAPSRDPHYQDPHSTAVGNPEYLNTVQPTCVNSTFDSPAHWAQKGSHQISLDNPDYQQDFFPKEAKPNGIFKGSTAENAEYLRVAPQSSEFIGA", "assay": "Cellular proliferation (Alamar Blue) assay, EGFR A767_dupASV Ba/F3", "conditions": "72 hr, read-out: A767 IC50", "how_it_was_run": "(§1)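 Seventy-two-hour compound exposure (3-fold series, final 10–0.0005 μM) of mutant EGFR/HER2 Ba/F3 cells plated at 15,000/well in RPMI with 10% FBS. Alamar Blue added for 3 h at 37 °C as proliferation read-out.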"}, "[3]": {"tested_on": "A431 cells", "assay": "Cellular proliferation (Alamar Blue) assay, A431"}, "[4]": {"target": "EGFR(D770_N771insSVD) expressing Ba/F3 stable cell line (Homo sapiens, UniProt P00533, DUP768-770, cells depend on it)", "sequence (P00533 with tags, fused parts or gaps DUP768-770)": "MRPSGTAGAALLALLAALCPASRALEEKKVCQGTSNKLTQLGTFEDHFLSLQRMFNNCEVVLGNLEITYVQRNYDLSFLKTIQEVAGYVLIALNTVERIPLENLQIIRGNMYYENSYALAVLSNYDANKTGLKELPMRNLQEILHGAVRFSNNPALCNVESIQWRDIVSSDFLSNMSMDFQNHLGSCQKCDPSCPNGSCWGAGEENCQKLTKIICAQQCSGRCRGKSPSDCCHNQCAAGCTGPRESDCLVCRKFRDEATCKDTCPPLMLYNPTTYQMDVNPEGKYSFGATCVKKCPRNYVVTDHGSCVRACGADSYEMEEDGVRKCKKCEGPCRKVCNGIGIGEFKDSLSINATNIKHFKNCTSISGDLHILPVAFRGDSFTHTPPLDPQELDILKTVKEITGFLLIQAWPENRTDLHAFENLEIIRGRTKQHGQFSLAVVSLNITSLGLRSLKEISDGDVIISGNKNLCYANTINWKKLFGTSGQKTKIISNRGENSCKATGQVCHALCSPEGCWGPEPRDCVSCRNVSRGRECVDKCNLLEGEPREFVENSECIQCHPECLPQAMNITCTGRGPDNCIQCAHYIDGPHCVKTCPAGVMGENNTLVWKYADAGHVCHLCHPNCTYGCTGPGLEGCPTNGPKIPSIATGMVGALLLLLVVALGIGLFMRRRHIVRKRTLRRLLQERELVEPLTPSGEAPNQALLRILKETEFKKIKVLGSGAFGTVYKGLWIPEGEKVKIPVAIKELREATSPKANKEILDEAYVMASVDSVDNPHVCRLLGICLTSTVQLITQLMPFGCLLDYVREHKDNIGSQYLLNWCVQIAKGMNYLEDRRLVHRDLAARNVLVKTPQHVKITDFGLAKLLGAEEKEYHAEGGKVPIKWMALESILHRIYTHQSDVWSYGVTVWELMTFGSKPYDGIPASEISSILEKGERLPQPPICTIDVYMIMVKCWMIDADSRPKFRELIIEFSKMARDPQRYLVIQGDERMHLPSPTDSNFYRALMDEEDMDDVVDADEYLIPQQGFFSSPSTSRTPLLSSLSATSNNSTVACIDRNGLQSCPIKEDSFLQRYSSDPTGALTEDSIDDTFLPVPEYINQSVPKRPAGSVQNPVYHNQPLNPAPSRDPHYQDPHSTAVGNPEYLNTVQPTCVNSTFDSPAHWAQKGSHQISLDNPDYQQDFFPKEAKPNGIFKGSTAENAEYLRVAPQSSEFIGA", "assay": "Cellular proliferation (Alamar Blue) assay, EGFR D770_N771insSVD Ba/F3", "conditions": "72 hr, read-out: D770 IC50", "how_it_was_run": "as §1"}, "[5]": {"conditions": "Homo sapiens, A-431; A431 cells, Alamar Blue, 72 hr; read-out: A431 IC50"}, "[6]": {"conditions": "Homo sapiens, A-431; A431 cells, 72 hr, Alamar Blue; read-out: A431 IC50"}}, "note": "Counter-ions that a name gives are not always drawn. Like-named read-outs stand apart in the source and are kept apart here.", "data": [{"molecule": "CN(C)C/C=C/C(=O)Nc1ccc(F)c(Nc2nc(Nc3cnn(C4CCC(O)CC4)c3)ncc2Cl)c1", "note": "(centres unmarked) [Compound 5, (E)-N-(3-((5-chloro-2-((1-(4-hydroxycyclohexyl)-1H-pyrazol-4-yl)amino)pyrimidin-4-yl)amino)-4-fluorophenyl)-4-(dimethylamino)but-2-enamide]", "values": [{"measurement": "GI50", "setting": "[1]", "value": 4.28, "unit": "µM"}, {"measurement": "GI50", "setting": "[2]", "value": 7.38, "unit": "µM"}, {"measurement": "IC50", "setting": "[3]; [5]", "value": "> 10", "unit": "µM"}, {"measurement": "GI50", "setting": "[4]", "value": 5.58, "unit": "µM"}]}, {"molecule": "COC/C=C/C(=O)Nc1ccc(F)c(Nc2nc(Nc3cnn(C)c3)ncc2Cl)c1", "note": "[Compound 6, (E)-N-(3-((5-chloro-2-((1-methyl-1H-pyrazol-4-yl)amino)pyrimidin-4-yl)amino)-4-fluorophenyl)-4-methoxybut-2-enamide]", "values": [{"measurement": "GI50", "setting": "[1]", "value": 9.01, "unit": "µM"}, {"measurement": "GI50", "setting": "[2]", "value": "> 10", "unit": "µM"}, {"measurement": "IC50", "setting": "[3]; [5]", "value": "> 10", "unit": "µM"}, {"measurement": "GI50", "setting": "[4]", "value": "> 10", "unit": "µM"}]}, {"molecule": "Cn1cc(Nc2ncc(Cl)c(Nc3cc(NC(=O)/C=C/CF)ccc3F)n2)cn1", "note": "[Compound 7, (E)-N-(3-((5-chloro-2-((1-methyl-1H-pyrazol-4-yl)amino)pyrimidin-4-yl)amino)-4-fluorophenyl)-4-fluorobut-2-enamide]", "values": [{"measurement": "GI50", "setting": "[1]", "value": 3.22, "unit": "µM"}, {"measurement": "GI50", "setting": "[2]", "value": 0.995, "unit": "µM"}, {"measurement": "IC50", "setting": "[3]; [5]", "value": 8.73, "unit": "µM"}, {"measurement": "GI50", "setting": "[4]", "value": 3.27, "unit": "µM"}]}, {"molecule": "C=CC(=O)Nc1ccc(Cl)c(Nc2nc(Nc3cnn(C)c3)ncc2Cl)c1", "note": "[Compound 8, N-(4-chloro-3-((5-chloro-2-((1-methyl-1H-pyrazol-4-yl)amino)pyrimidin-4-yl)amino)phenyl)acrylamide]", "values": [{"measurement": "GI50", "setting": "[1]", "value": 4.99, "unit": "µM"}, {"measurement": "GI50", "setting": "[2]", "value": 7.58, "unit": "µM"}, {"measurement": "IC50", "setting": "[3]; [5]", "value": 8.59, "unit": "µM"}, {"measurement": "GI50", "setting": "[4]", "value": 7.45, "unit": "µM"}]}, {"molecule": "CN(C)C/C=C/C(=O)Nc1ccc(Cl)c(Nc2nc(Nc3cnn(C)c3)ncc2Cl)c1", "note": "[Compound 9, (E)-N-(4-chloro-3-((5-chloro-2-((1-methyl-1H-pyrazol-4-yl)amino)pyrimidin-4-yl)amino)phenyl)-4-(dimethylamino)but-2-enamide]", "values": [{"measurement": "GI50", "setting": "[1]", "value": 7.49, "unit": "µM"}, {"measurement": "GI50", "setting": "[2]", "value": "> 10", "unit": "µM"}, {"measurement": "IC50", "setting": "[3]; [5]", "value": 8.03, "unit": "µM"}, {"measurement": "GI50", "setting": "[4]", "value": 9.48, "unit": "µM"}]}, {"molecule": "C/C=C/C(=O)Nc1ccc(F)c(Nc2nc(Nc3cnn(C)c3)ncc2Cl)c1", "note": "[Compound 11, (E)-N-(3-((5-chloro-2-((1-methyl-1H-pyrazol-4-yl)amino)pyrimidin-4-yl)amino)-4-fluorophenyl)but-2-enamide]", "values": [{"measurement": "GI50", "setting": "[1]", "value": 4.72, "unit": "µM"}, {"measurement": "GI50", "setting": "[2]", "value": "> 10", "unit": "µM"}, {"measurement": "IC50", "setting": "[3]; [5]", "value": "> 10", "unit": "µM"}, {"measurement": "GI50", "setting": "[4]", "value": "> 10", "unit": "µM"}]}, {"molecule": "C=C(C)C(=O)Nc1ccc(F)c(Nc2nc(Nc3cnn(C)c3)ncc2Cl)c1", "note": "[Compound 12, N-(3-((5-chloro-2-((1-methyl-1H-pyrazol-4-yl)amino)pyrimidin-4-yl)amino)-4-fluorophenyl)methacrylamide]", "values": [{"measurement": "GI50", "setting": "[1]", "value": 7.03, "unit": "µM"}, {"measurement": "GI50", "setting": "[2]", "value": "> 10", "unit": "µM"}, {"measurement": "IC50", "setting": "[3]; [5]", "value": "> 10", "unit": "µM"}, {"measurement": "GI50", "setting": "[4]", "value": "> 10", "unit": "µM"}]}, {"molecule": "C=CC(=O)Nc1cccc(Nc2nc(Nc3cnn(C)c3)ncc2-c2ccc(C(F)(F)F)cc2)c1F", "note": "[Compound 148, N-(2-fluoro-3-((2-((1-methyl-1H-pyrazol-4-yl)amino)-5-(4-(trifluoromethyl)phenyl)pyrimidin-4-yl)amino)phenyl)acrylamide trifluoroacetate]", "values": [{"measurement": "GI50", "setting": "[1]", "value": 0.349, "unit": "µM"}, {"measurement": "GI50", "setting": "[2]", "value": 0.056, "unit": "µM"}, {"measurement": "IC50", "setting": "[3]; [5]", "value": 0.083, "unit": "µM"}]}, {"molecule": "C=CC(=O)Nc1cccc(Nc2nc(Nc3cnn(C)c3)ncc2-c2ccc(Br)cc2)c1", "note": "[Compound 274, N-(3-((5-(4-bromophenyl)-2-((1-methyl-1H-pyrazol-4-yl)amino)pyrimidin-4-yl)amino)phenyl)acrylamide]", "values": [{"measurement": "GI50", "setting": "[1]", "value": 0.12, "unit": "µM"}, {"measurement": "IC50", "setting": "[3]; [6]", "value": 0.022, "unit": "µM"}, {"measurement": "GI50", "setting": "[4]", "value": 0.029, "unit": "µM"}]}, {"molecule": "C=CC(=O)Nc1ccc(Cl)c(Nc2nc(Nc3cnn(C)c3)ncc2-c2ccc(Br)cc2)c1", "note": "[Compound 292, N-(3-((5-(4-bromophenyl)-2-((1-methyl-1H-pyrazol-4-yl)amino)pyrimidin-4-yl)amino)-4-chlorophenyl)acrylamide]", "values": [{"measurement": "GI50", "setting": "[1]", "value": 8.83, "unit": "µM"}, {"measurement": "IC50", "setting": "[3]; [6]", "value": 1.02, "unit": "µM"}]}, {"molecule": "C=CC(=O)Nc1cc(Nc2nc(Nc3cnn(C)c3)ncc2Cl)cc2ccccc12", "note": "[Compound 297, N-(3-((5-chloro-2-((1-methyl-1H-pyrazol-4-yl)amino)pyrimidin-4-yl)amino)naphthalen-1-yl)acrylamide]", "values": [{"measurement": "GI50", "setting": "[1]", "value": "> 10", "unit": "µM"}, {"measurement": "IC50", "setting": "[3]; [6]", "value": 7.79, "unit": "µM"}]}]}
